Data as given in US11241396B2 (Gateway Health Alliances, Inc., priority 2015, dated 2022).
Entries after “also recorded” stand apart in the source; their conditions may differ. Read-outs that look alike come from different tables or passages of the source.

Legend:
animal = conditions: 500 mg/kg, bw/day for 3 months dosing; cited from earlier work
humans [1] = conditions: cited from earlier work
humans [2] = conditions: cited from earlier work; remark: listed apart in the source
platelets [3] = conditions: 4 mg/kg/day; cited from earlier work
postmenopausal women = experiment: Microvascular function by peripheral arterial tonometry (Endo-PAT2000), randomized double-blind crossover trial; assay type: in vivo, human; conditions: combined data; univariate ANOVA with Bonferroni post hoc
[4] = Plasma resveratrol concentrations (HPLC) after capsule intake; assay type: in vivo, human; conditions: 90 mg, median (interquartile range), n=30
Procedure: The study included two separate investigations: a one hour study and a two hour study (FIG. 1). […] The two hour study was designed to fully assess and compare the responses to trans-res and ResArgin™.
Participants were randomized by block design to consumed trans-res or ResArgin™ in random order. Randomization was performed by the study coordinator following a predetermined plan formulated via a web-based random number generator. […] The study included two separate investigations: a one hour study and a two hour study (FIG. 6). During each study visit, which took place after an overnight fast, a baseline measurement of PAT and a blood sample were collected, followed by consumption of the assigned treatment. During the one hour study, PAT measurements and blood samples were collected thirty and sixty minutes after the capsules were consumed. During the two hour study, a PAT measurement and blood sample were taken two hours after the capsules were consumed.
Briefly, plasma was treated with acidified methanol [0.5% (v/v) of acetic acid in methanol; precooled to −20° C.] containing an appropriate recovery standard. The mixture was stored at −80 C for 12 hours to allow for cryo-assisted protein precipitation, and then centrifuged for 15 min at 16,500×g. […]

platelets [5] = experiment: Platelet function by whole blood/optical lumi-aggregometer after capsule intake; assay type: in vivo, human
Procedure: Platelet reactivity during clinical screening was assessed by a PFA-100 (Siemens, Deerfield, Ill.), which measures platelet function by simulating arterial hemostasis under blood flow shear stress. During the intervention, platelet function was assessed by a whole blood/optical lumi-aggregometer (Chrono-log Model 700, Havertown, Pa.). Briefly, platelet aggregation was measured via electrical impedence (or electrical resistance), whereas lumi-aggregometry was used to examine aggregation together with adenosine triphosphate (hereafter, “ATP”) release, which is determined with firefly luciferin-luciferase system. […] One of the following agonists was used to stimulate platelets: collagen (1 μL and 5 μL), AA (10 μL) or ADP (10 μL). ATP release was measured only when platelets were activated with ADP. The aggregation was measured over a period of six minutes, following the addition of an agonist.

[6] = system: human umbilical vein endothelial cells; conditions: 1 μM; cited from earlier work
platelets [7] = conditions: 10 mg daily for three months; cited from earlier work
platelets [8] = conditions: 10-1,000 μM in vitro; cited from earlier work
cyclooxygenase (COX) = conditions: in vitro studies; cited from earlier work
[9] = 10 mg per day for three months, stable coronary artery disease patients
[10] = 1 μL collagen, one hour post consumption vs baseline
[11] = 10 μL arachidonic acid, one hour after intake vs baseline

In the case of Oc1ccc(C=Cc2cc(O)cc(O)c2)cc1 [Resveratrol, 3,5,4′-trihydroxystilbene], the “Toxicity in animal studies” value (animal) is listed as “no toxicity effect”, the FMD (humans [1]; [9]) is listed as “enhanced FMD response” and the FMD (humans [1]; 75 mg daily for six weeks) is listed as “enhanced FMD response”. For the same molecule, the “Plasminogen activator inhibitor type 1 (PAI-1)” value (humans [2]; 8 mg daily for six months, then 16 mg per day for six months) was “significant decrease”, the Total cholesterol (humans [2]; 250 mg for three months) was “decrease” and the “Low density lipoprotein (LDL) cholesterol” value (humans [2]; daily intake of 8 mg for six months) was “Reduction”. For the same molecule, the ADP-induced platelet aggregation (platelets [3]) was “inhibited”.

With Oc1ccc(/C=C/c2cc(O)cc(O)c2)cc1 [trans-res, Trans-resveratrol] the “FRHI one and two hours post-consumption compared to baseline (significance)” value (postmenopausal women) was “No differences were observed; also recorded: no changes were noted”, the “RHI one hour after intake compared to baseline (significance)” value (postmenopausal women) was “not observed” and the Plasma resveratrol concentration ([4]; 30 minutes after intake) was 2.04 (0.82, 2.54). For the same molecule, the Plasma resveratrol concentration ([4]; 60 minutes after intake) was 2.65 (1.69, 3.44), the “Lag time of platelet aggregation” value (platelets [5]; [10]) was “significant increase” and the “Slope of platelet aggregation” value (platelets [5]; [10]) was “not for the trans-res group”. For the same molecule, the Platelet function changes (platelets [5]; 5 μL collagen, one hour post consumption vs baseline) was “no significant changes”, the “Slope, lumi-aggregometry” value (platelets [5]; 10 μL ADP, one hour post consumption vs baseline) was “significant decrease” and the “Area under the curve (AUC) of aggregation” value (platelets [5]; [11]) was “no changes were noted”. For the same molecule, the Maximum aggregation (platelets [5]; [11]) was “no changes were noted”, the “Expression of eNOS” value [6] was “up-regulated” and the FMD (humans [1]; [9]) was “significant improvement in FMD”. For the same molecule, the FMD (humans [1]; 75 mg daily for six weeks) was “significant increase in FMD”, the FMD (humans [1]; 75 mg, one hour post-consumption) was “significant increase in FMD” and the FMD (humans [1]; single dose of 30, 90 and 270 mg, one hour after consumption) was “increase in FMD”. For the same molecule, the Platelet aggregation (platelets [7]) was “significantly reduced”, the Platelet aggregation (platelets [8]) was “significantly reduced aggregation in a dose dependent fashion” and the “Cyclooxygenase (COX) activity” value (cyclooxygenase (COX)) was “can inhibit”.
